# Experiment: In vitro inhibition of EGF-stimulated DNA synthesis of ER 22 cells by following the incorporation of methyl-[3H]thymidine.
row,SMILES,IC50 [µM]
1,O=C(NCc1ccccc1)c1ccc(-c2cc(O)cc(-c3ccccc3)c2)cc1,8
2,CC(COC(=O)c1ccc(-c2cc(O)cc(C(C)(C)C)c2)cc1)CC(C)(C)C (stereo not given),> 5
3,COC(=O)c1ccc(-c2ccc(C(C)(C)C)cc2O)cc1,> 5
4,O=C(O)c1ccc(-c2cc(O)cc(-c3ccccc3)c2)cc1,10
5,CC(COC(=O)c1ccc(-c2cc(O)cc(-c3ccccc3)c2)cc1)CC(C)(C)C (stereo not given),> 5
6,COCOc1c(-c2ccccc2)cccc1-c1ccc(C(=O)OCC(C)CC(C)(C)C)cc1 (stereo not given),> 10
7,COCOc1cc(-c2ccccc2)ccc1-c1ccc(C(=O)O)cc1,10
8,COCOc1cc(-c2ccccc2)ccc1-c1ccc(C(=O)OC)cc1,> 5
9,CC(COC(=O)c1ccc(-c2cccc(-c3ccccc3)c2O)cc1)CC(C)(C)C (stereo not given),> 10
10,"COC(=O)c1ccc(-c2cccc(-c3ccccc3)c2O)cc1 [2'-Hydroxy-[1,1';3',1'']terphenyl-4-carboxylic acid methyl ester]",> 5
11,"O=C(NCc1ccccc1)c1ccc(-c2ccc(-c3ccccc3)cc2O)cc1 [2'-Hydroxy-[1,1';4',1'']terphenyl-4-carboxylic acid benzylamide]",1.4
12,"COCOc1cc(-c2ccccc2)ccc1-c1ccc(C(=O)NCc2ccccc2)cc1 [2'-Methoxymethoxy-[1,1';4',1'']terphenyl-4-carboxylic acid benzylamide]",1.1
13,CC(C)(C)c1cc(O)cc(-c2ccc(C(=O)NCc3ccccc3)cc2)c1 [3'-tert-Butyl-5'-hydroxy-biphenyl-4-carboxylic acid benzylamide],5.4
14,CC(C)(C)c1cc(O)cc(-c2ccc(C(=O)O)cc2)c1 [3'-tert-Butyl-5'-hydroxy-biphenyl-4-carboxylic acid],> 20
15,COCOc1cc(C(C)(C)C)ccc1-c1ccc(C(=O)OC)cc1 [4'-tert-Butyl-2'-methoxymethoxy-biphenyl-4-carboxylic acid methyl ester],10

# — BindingDB's records for doi:10.1021/jm00023a009 (University of Paris, 1995)
